Experimental data taken from US7648996B2 (Biotica Technology Limited, priority 2005, dated 2010).
pIC50, pKd: −log10 of the molar value. Marks after values point to notes of the source that are not given here.

What was measured:
A498 = experiment: Monolayer proliferation assay (modified propidium iodide); format: cell-based, human; conditions: mean of duplicate experiments
Description: (§1) In vitro evaluation of compounds for anticancer activity in a panel of 12 human tumour cell lines in a monolayer proliferation assay was carried out at the Oncotest Testing Facility, Institute for Experimental Oncology, Oncotest GmbH, Freiburg.
(§2) The Oncotest cell lines were established from human tumor xenografts as described by Roth et al. 1999. The origin of the donor xenografts was described by Fiebig et al. 1999. Other cell lines were either obtained from the NCI (H460, SF-268, OVCAR-3, DU145, MDA-MB-231, MDA-MB-468) or purchased from DSMZ, Braunschweig, Germany (LNCAP).
(§3) All cell lines, unless otherwise specified, are grown at 37° C. in a humidified atmosphere (95% air, 5% CO2) in a ‘ready-mix’ medium containing RPMI 1640 medium, 10% fetal calf serum, and 0.1 mg/mL gentamicin (PAA, Cölbe, Germany).
(§4) A modified propidium iodide assay was used to assess the effects of the test compound(s) on the growth of twelve human tumor cell lines (Dengler et al., (1995)).
(§5) Briefly, cells were harvested from exponential phase cultures by trypsinization, counted and plated in 96 well flat-bottomed microtitre plates at a cell density dependent on the cell line (5-10,000 viable cells/well). After 24 h recovery to allow the cells to resume exponential growth, 0.01 mL of culture medium (6 control wells per plate) or culture medium containing macbecin are added to the wells. Each concentration is plated in triplicate. […] Following 4 days of continuous exposure, cell culture medium with or without test compound is replaced by 0.2 mL of an aqueous propidium iodide (PI) solution (7 mg/L). To measure the proportion of living cells, cells are permeabilized by freezing the plates. After thawing the plates, fluorescence is measured using the Cytofluor 4000 microplate reader (excitation 530 nm, emission 620 nm), giving a direct relationship to the total number of viable cells.
(§6) Growth inhibition is expressed as treated/control×100 (% T/C). For active compounds, IC50 & IC70 values were estimated by plotting compound concentration versus cell viability.

MDA231 = experiment: as above; format: cell-based, human; conditions: mean of duplicate experiments
Description: as §1, §2, §3, §4, §5, §6

MCF7 = experiment: as above; format: cell-based, human; conditions: mean of duplicate experiments
Description: as §1, §2, §3, §4, §5, §6

LNCAP = experiment: as above; format: cell-based, human; conditions: mean of duplicate experiments
Description: as §1, §2, §3, §4, §5, §6

OVCAR3 = experiment: as above; format: cell-based, human; conditions: mean of duplicate experiments
Description: as §1, §2, §3, §4, §5, §6

H460 = experiment: as above; format: cell-based, human; conditions: mean of duplicate experiments
Description: as §1, §2, §3, §4, §5, §6

MDA468 = experiment: as above; format: cell-based, human; conditions: mean of duplicate experiments
Description: as §1, §2, §3, §4, §5, §6

DU145 = experiment: as above; format: cell-based, human; conditions: mean of duplicate experiments
Description: as §1, §2, §3, §4, §5, §6

SF268 = experiment: as above; format: cell-based, human; conditions: mean of duplicate experiments
Description: as §1, §2, §3, §4, §5, §6

1138L = experiment: as above; format: cell-based, human; conditions: mean of duplicate experiments
Description: as §1, §2, §3, §4, §5, §6

251L = experiment: as above; format: cell-based, human; conditions: mean of duplicate experiments
Description: as §1, §2, §3, §4, §5, §6

394NL = experiment: as above; format: cell-based, human; conditions: mean of duplicate experiments
Description: as §1, §2, §3, §4, §5, §6

[1] = system: panel of 12 human tumour cell lines; experiment: Monolayer proliferation assay, mean across the cell lines tested; format: cell-based; conditions: for pIC50: Homo sapiens
Description: as §1, §2, §3, §4, §5, §6

FKBP12 = FKBP12 (Homo sapiens, UniProt P62942); experiment: FKBP-12 in vitro binding assay (GdnHCl denaturation curve shift)
FKBP12, sequence (P62942 whole entry): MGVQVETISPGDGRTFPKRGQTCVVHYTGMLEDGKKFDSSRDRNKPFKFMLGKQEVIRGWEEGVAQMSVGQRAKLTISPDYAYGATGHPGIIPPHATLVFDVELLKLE
Text: FKBP12 reversibly unfolds in the chemical denaturant guandinium hydrochloride (GdnHCl) and the unfolding can be monitored by the change in the intrinsic fluorescence of the protein (Main et al, 1998). Ligands which specifically bind and stabilise the native state of FKBP12 shift the denaturation curve such that the protein unfolds at higher concentrations of chemical denaturant (Main et al, 1999). From the difference in stability, the ligand-binding constant can be determined using equation 1.
[formula] where ΔGapp is the apparent difference in free energy of unfolding between free and ligand-bound forms, ΔGD-N^H^2^O is the free energy of unfolding in water of free protein, [L] the concentration of ligand and Kd the dissociation constant for the protein-ligand complex (Meiering et al, 1992). The free energy of unfolding can be related to the midpoint of the unfolding transition using the following equation: ΔGD-N^H^2^O=mD-N[D]50% (2) where mD-N is a constant for a given protein and given denaturant and which is proportional to the change in degree of exposure of residues on unfolding (Tanford 1968 and Tanford 1970), and [D]50% is the concentration of denaturant corresponding to the midpoint of unfolding. […] Under conditions where [L]>Kd, then, ΔΔGD-N, can be related to the relative Kds of the two compounds through equation 4: […]

[2] = mean across the 12 cell lines tested
[3] = mean based on the 9 cell lines for which data was available

Structure (SMILES)	Cell Growth (Test/Control (%) at drug concentration) (A498; A498, 1 μM) [%]	Cell Growth (Test/Control (%) at drug concentration) (A498; A498, 10 μM) [%]	Cell Growth (Test/Control (%) at drug concentration) (MCF7; MCF7, 1 μM) [%]	Cell Growth (Test/Control (%) at drug concentration) (MCF7; MCF7, 10 μM) [%]	Cell Growth (Test/Control (%) at drug concentration) (LNCAP; 1 μM) [%]	Cell Growth (Test/Control (%) at drug concentration) (LNCAP; 10 μM) [%]	Cell Growth (Test/Control (%) at drug concentration) (OVCAR3; OVCAR3, 1 μM) [%]	Cell Growth (Test/Control (%) at drug concentration) (OVCAR3; OVCAR3, 10 μM) [%]	Cell Growth (Test/Control (%) at drug concentration) (H460; H460, 1 μM) [%]	Cell Growth (Test/Control (%) at drug concentration) (H460; H460, 10 μM) [%]	Cell Growth (Test/Control (%) at drug concentration) (DU145; DU145, 1 μM) [%]	Cell Growth (Test/Control (%) at drug concentration) (DU145; DU145, 10 μM) [%]	Cell Growth (Test/Control (%) at drug concentration) (SF268; SF268, 1 μM) [%]	Cell Growth (Test/Control (%) at drug concentration) (SF268; SF268, 10 μM) [%]	Cell Growth (Test/Control (%) at drug concentration) (1138L; 1 μM) [%]	Cell Growth (Test/Control (%) at drug concentration) (1138L; 10 μM) [%]	Cell Growth (Test/Control (%) at drug concentration) (251L; 1 μM) [%]	Cell Growth (Test/Control (%) at drug concentration) (251L; 10 μM) [%]	Cell Growth (Test/Control (%) at drug concentration) (394NL; 1 μM) [%]	Cell Growth (Test/Control (%) at drug concentration) (394NL; 10 μM) [%]	other results
COC1CC2CCC(C)C(O)(O2)C(=O)C(=O)N2CCCCC2C(=O)OC(C(C)CC2CCC(OC(=O)C(C)(CO)CO)CC2)CC(=O)C(C)C=C(C)C(O)C(OC)C(=O)C(C)CC(C)C=CC=CC=C1C (centres unmarked) [39-desmethoxy-40-O-[2,2-bis(hydroxymethyl)propionyl]rapamycin]	66	19.5	67	9	48.5	20.5	73.5	39	66	12	62.5	13.5	62.5	12	50	7.5	85.5	13	46	13	Cell Growth (Test/Control (%) at drug concentration) (MDA231; MDA231, 1 μM): 70.5%; Cell Growth (Test/Control (%) at drug concentration) (MDA231; MDA231, 10 μM): 13.5%; Cell Growth (Test/Control (%) at drug concentration) (MDA468; MDA468, 1 μM): 66%; Cell Growth (Test/Control (%) at drug concentration) (MDA468; MDA468, 10 μM): 9%; pIC50 [1, 2]: 5.70; Mean IC70 [1, 2]: 4.5 µM; pKd (FKBP12): 8.96
CO[C@H]1C[C@@H]2CC[C@@H](C)[C@@](O)(O2)C(=O)C(=O)N2CCCC[C@H]2C(=O)O[C@H]([C@H](C)C[C@@H]2CC[C@@H](O)[C@H](OC)C2)CC(=O)[C@H](C)/C=C(\C)[C@@H](O)[C@@H](OC)C(=O)[C@H](C)C[C@H](C)/C=C/C=C/C=C/1C [Rapamycin, reference compound]	58.5	48.5	68.5	26.5	61	34	69	69.5	67	66	50.5	54	53.5	46	42	21.5	75.5	40	45	44	Cell Growth (Test/Control (%) at drug concentration) (MDA231; MDA231, 1 μM): 67%; Cell Growth (Test/Control (%) at drug concentration) (MDA231; MDA231, 10 μM): 63.5%; Cell Growth (Test/Control (%) at drug concentration) (MDA468; MDA468, 1 μM): 56.5%; Cell Growth (Test/Control (%) at drug concentration) (MDA468; MDA468, 10 μM): 32%; pIC50 [1, 2]: 5.46; Mean IC70 [1, 2]: 9.1 µM
COC1CC2CCC(C)C(O)(O2)C(=O)C(=O)N2CCCCC2C(=O)OC(C(C)CC2CCC(OCCO)CC2)CC(=O)C(C)C=C(C)C(O)C(OC)C(=O)C(C)CC(C)C=CC=CC=C1C (centres unmarked) [39-desmethoxy-40-O-(2-hydroxy)ethyl rapamycin]			77	10	49	18	85	9	76	25	56	7	63	7	59	4	90	31	55	6	pIC50 [1, 3]: 5.66; Mean IC70 [1, 3]: 5.513* microM; pKd (FKBP12): 8.43
